Test results from ChEMBL document CHEMBL3616451, “Design and synthesis of 11α-substituted bile acid derivatives as potential anti-tuberculosis agents” (Bioorg Med Chem Lett, 2015).
≈ marks a conversion by molar mass, not a printed value. Calls of active or inactive are those of the source. The calls are words filed in the database; no cut-off is given here.

Tests used:
Bacillus subtilis = assay: Antibacterial activity against Bacillus subtilis ATCC 23857 assessed as growth inhibition at 30 ug/ml relative to control; format: functional; conditions: for inhibition of growth at 30 µg/mL: read-out: GI
[1] = tested on: Mycobacterium tuberculosis; assay: Anti-tubercular activity against rifampicin, isoniazid, ethambutol and pyrazinamide-sensitive Mycobacterium tuberculosis H37Ra ATCC 25177 assessed as growth inhibition at 10 ug/ml by XRMA method relative to control; format: functional; conditions: for inhibition of growth at 10 µg/mL: read-out: GI
[2] = tested on: Mycobacterium tuberculosis; assay: Anti-tubercular activity against rifampicin, isoniazid, ethambutol and pyrazinamide-sensitive Mycobacterium tuberculosis H37Ra ATCC 25177 assessed as growth inhibition at 30 ug/ml by XRMA method relative to control; format: functional; conditions: read-out: GI
[3] = tested on: Mycobacterium tuberculosis; assay: Anti-tubercular activity against rifampicin, isoniazid, ethambutol and pyrazinamide-sensitive Mycobacterium tuberculosis H37Ra ATCC 25177 assessed as growth inhibition at 3 ug/ml by XRMA method relative to control; format: functional; conditions: for inhibition of growth at 3 µg/mL: read-out: GI
Pseudomonas fluorescens = assay: Antibacterial activity against Pseudomonas fluorescens ATCC 13525 assessed as growth inhibition at 30 ug/ml relative to control; format: functional; conditions: for inhibition of growth at 30 µg/mL: read-out: GI
Escherichia coli = assay: Antibacterial activity against Escherichia coli […] assessed as growth inhibition at 30 ug/ml relative to control; format: functional; conditions: read-out: GI
Staphylococcus aureus = assay: Antibacterial activity against Staphylococcus aureus ATCC 29213 assessed as growth inhibition at 30 ug/ml relative to control; format: functional; conditions: for inhibition of growth at 30 µg/mL: read-out: GI
[4] = (§1) Cytotoxicity against human A549 cells after 48 hrs by MTT assay; format: cell-based; conditions: A549 cells
A549 = assay: as §1; format: cell-based; conditions: a549, 48 h
[5] = (§2) Cytotoxicity against human THP1 cells after 48 hrs by MTT assay; format: cell-based, THP-1; conditions: THP-1 cells
THP-1 = assay: as §2; format: cell-based; conditions: thp-1, 48 h
[6] = Cytotoxicity against human PANC1 cells after 48 hrs by MTT assay; format: cell-based, PANC-1; conditions: for GI50 at 48 h: PANC-1 cells; for GI90: panc-1, 48 h
[7] = tested on: Mycobacterium tuberculosis; assay: Anti-tubercular activity against rifampicin, isoniazid, ethambutol and pyrazinamide-sensitive active phage of Mycobacterium tuberculosis H37Ra ATCC 25177 infected in human THP1 cells by neutral red assay; format: functional, organism-based; conditions: H37Ra ATCC 25177, THP-1
[8] = tested on: Mycobacterium tuberculosis; assay: Anti-tubercular activity against rifampicin, isoniazid, ethambutol and pyrazinamide-sensitive dormant phage of Mycobacterium tuberculosis H37Ra ATCC 25177 by serial dilution method; format: functional, organism-based
[9] = tested on: Mycobacterium tuberculosis; assay: Anti-tubercular activity against rifampicin, isoniazid, ethambutol and pyrazinamide-sensitive dormant phage of Mycobacterium tuberculosis H37Ra ATCC 25177 infected in human THP1 cells by neutral red assay; format: functional, organism-based; conditions: H37Ra ATCC 25177, THP-1
[10] = tested on: Mycobacterium tuberculosis; assay: Anti-tubercular activity against rifampicin, isoniazid, ethambutol and pyrazinamide-sensitive active phage of Mycobacterium tuberculosis H37Ra ATCC 25177 by serial dilution method; format: functional, organism-based

CCOC(=O)N[C@@H]1C(=O)[C@]2(C)[C@@H]([C@H](C)CCC(=O)OC)CC[C@H]2[C@H]2[C@H]1[C@@]1(C)CC[C@@H](OC(C)=O)C[C@H]1C[C@H]2OC(C)=O
growth inhibition (GI) (Bacillus subtilis): inactive | inhibition of growth at 10 µg/mL [1]: 73% | inhibition of growth at 30 µg/mL [2]: 86% | inhibition of growth at 3 µg/mL [3]: 66% | inhibition of growth at 30 µg/mL (Pseudomonas fluorescens): 54.5% | inhibition of growth at 30 µg/mL (Escherichia coli): 46.7% | inhibition of growth at 30 µg/mL (Staphylococcus aureus): 17.3%

CC(=O)O[C@H]1C(=O)[C@@]2(C)[C@H]([C@H](OC(=O)c3ccccc3)[C@]3(O)C[C@H](OC(=O)[C@H](O)[C@@H](NC(=O)c4ccccc4)c4ccccc4)C(C)=C1C3(C)C)[C@]1(OC(C)=O)CO[C@@H]1C[C@@H]2O [PACLITAXEL]
GI50 at 48 h [4]: 3.5 ng/mL (≈ 0.0041 µM) | GI90 (A549): 0.0706 µg/mL (≈ 0.0827 µM) | GI50 at 48 h [5]: 0.137 µg/mL (≈ 0.161 µM) | GI90 (THP-1): 5.814 µg/mL (≈ 6.81 µM) | GI50 at 48 h [6]: 0.128 µg/mL (≈ 0.15 µM) | GI90 [6]: 5.715 µg/mL (≈ 6.69 µM)

CO[C@H]1/C=C/O[C@@]2(C)Oc3c(C)c(O)c4c(O)c(c(/C=N/N5CCN(C)CC5)c(O)c4c3C2=O)NC(=O)/C(C)=C\C=C\[C@H](C)[C@H](O)[C@@H](C)[C@@H](O)[C@@H](C)[C@H](OC(C)=O)[C@@H]1C [RIFAMPIN]
IC50 [7]: 0.0021 µg/mL (≈ 0.00255 µM) | IC90 [7]: 0.051 µg/mL (≈ 0.062 µM) | IC50 [8]: 0.0014 µg/mL (≈ 0.0017 µM) | IC90 [8]: 0.043 µg/mL (≈ 0.0523 µM) | IC50 [9]: 0.0018 µg/mL (≈ 0.00219 µM) | IC90 [9]: 0.048 µg/mL (≈ 0.0583 µM) | IC50 [10]: 0.0018 µg/mL (≈ 0.00219 µM) | IC90 [10]: 0.048 µg/mL (≈ 0.0583 µM)

COC(=O)CC[C@@H](C)[C@H]1CC[C@H]2[C@H]3[C@H]([C@H](N)C(=O)[C@]12C)[C@@]1(C)CC[C@@H](OC(C)=O)C[C@H]1C[C@H]3OC(C)=O
inhibition of growth at 10 µg/mL [1]: < 1% | inhibition of growth at 30 µg/mL [2]: < 1% | growth inhibition (GI) [3]: inactive

COC(=O)CC[C@@H](C)[C@H]1CC[C@H]2[C@H]3[C@H]([C@H](N=[N+]=[N-])C(=O)[C@]12C)[C@@]1(C)CC[C@@H](OC(C)=O)C[C@H]1C[C@H]3OC(C)=O
growth inhibition (GI) [1]: inactive | inhibition of growth at 30 µg/mL [2]: 12% | growth inhibition (GI) [3]: inactive

COC(=O)CC[C@@H](C)[C@H]1CC[C@H]2[C@H]3[C@H]([C@H](NC(=O)C(CO)NC(=O)OC(C)(C)C)C(=O)[C@]12C)[C@@]1(C)CC[C@@H](OC(C)=O)C[C@H]1C[C@H]3OC(C)=O (some centres undefined)
growth inhibition (GI) (Bacillus subtilis): inactive | IC50 [7]: 3.98 µg/mL (≈ 5.63 µM) | IC90 [7]: 26.9 µg/mL (≈ 38 µM) | IC50 [8]: 6.16 µg/mL (≈ 8.71 µM) | IC90 [8]: 26.3 µg/mL (≈ 37.2 µM) | IC50 [9]: 3.44 µg/mL (≈ 4.87 µM) | IC90 [9]: 26.3 µg/mL (≈ 37.2 µM) | GI50 at 48 h [4]: > 100000 ng/mL | GI90 (A549): > 100 µg/mL | GI50 at 48 h [5]: 76.2 µg/mL (≈ 108 µM) | GI90 (THP-1): > 100 µg/mL | inhibition of growth at 10 µg/mL [1]: 73% | inhibition of growth at 30 µg/mL [2]: 91% | inhibition of growth at 3 µg/mL [3]: 68% | inhibition of growth at 30 µg/mL (Pseudomonas fluorescens): 29.9% | IC50 [10]: 2.7 µg/mL (≈ 3.82 µM) | IC90 [10]: 28.9 µg/mL (≈ 40.8 µM) | inhibition of growth at 30 µg/mL (Escherichia coli): 43.2% | GI50 at 48 h [6]: > 100 µg/mL | GI90 [6]: > 100 µg/mL | inhibition of growth at 30 µg/mL (Staphylococcus aureus): 11.9%

COC(=O)CC[C@@H](C)[C@H]1CC[C@H]2[C@H]3[C@H]([C@H](n4cc(-c5ccccc5)nn4)C(=O)[C@]12C)[C@@]1(C)CC[C@@H](OC(C)=O)C[C@H]1C[C@H]3OC(C)=O
inhibition of growth at 30 µg/mL (Bacillus subtilis): 20% | inhibition of growth at 10 µg/mL [1]: 68% | inhibition of growth at 30 µg/mL [2]: 74% | inhibition of growth at 3 µg/mL [3]: 67% | growth inhibition (GI) (Pseudomonas fluorescens): inactive | inhibition of growth at 30 µg/mL (Escherichia coli): 17.8% | growth inhibition (GI) (Staphylococcus aureus): inactive

COC(=O)CC[C@@H](C)[C@H]1CC[C@H]2[C@H]3[C@H]([C@H](NC(=O)[C@H]4CCCN4)C(=O)[C@]12C)[C@@]1(C)CC[C@@H](OC(C)=O)C[C@H]1C[C@H]3OC(C)=O
growth inhibition (GI) (Bacillus subtilis): inactive | inhibition of growth at 10 µg/mL [1]: 66% | inhibition of growth at 30 µg/mL [2]: 71% | inhibition of growth at 3 µg/mL [3]: 55% | inhibition of growth at 30 µg/mL (Pseudomonas fluorescens): 20.1% | inhibition of growth at 30 µg/mL (Escherichia coli): 23.9% | growth inhibition (GI) (Staphylococcus aureus): inactive

COC(=O)CC[C@@H](C)[C@H]1CC[C@H]2[C@H]3[C@H]([C@H](n4cc(-c5ccc(F)cc5)nn4)C(=O)[C@]12C)[C@@]1(C)CC[C@@H](OC(C)=O)C[C@H]1C[C@H]3OC(C)=O
inhibition of growth at 30 µg/mL (Bacillus subtilis): 20% | inhibition of growth at 10 µg/mL [1]: 75% | inhibition of growth at 30 µg/mL [2]: 79% | inhibition of growth at 3 µg/mL [3]: 71% | inhibition of growth at 30 µg/mL (Pseudomonas fluorescens): 23.2% | inhibition of growth at 30 µg/mL (Escherichia coli): 43.8% | growth inhibition (GI) (Staphylococcus aureus): inactive
